Key:
[1] = test system: immune cell clusters (CD45+ cells); test: CyTOF mass cytometry of blood and spleen with Citrus analysis; type: in vivo, mice; conditions: 6-OHDA 150 mg/kg twice IP (SNS ablated); splenocytes 24 h after VTA activation
Protocol: Two weeks after completion of the behavioral testing, mice were injected intraperitoneally with CNO and anesthetized 24 hours thereafter. Spleens and blood samples were collected. Spleens were dissociated into single-cell suspensions in 2% fetal bovine serum (Biological Industries, IL) and mesh filtered to remove clumps and debris. Blood samples were collected into heparin-coated sterile test tubes. Both the blood and the spleen cell suspensions were lysed with red blood cell lysis buffer (BD Biosciences, NJ, US). Cells ([…]) from each tissue were stained, for 1 hour at room temperature, with a mixture of metal tagged antibodies recognizing CD45, CCR3, CD80, GR1, CD86, CD19, CD4, CD45R, CD152, CD138, CD8, NK1.1, CD27, CD206, CD25, CD14, CD11c, CD49b, CD34, CD69, CD123, TCRβ, CCR7, CD28, CD115, CD133, TLR4, CD117, CD79b, CD62L, CD44, CD45RA, CD1d, IAIE, CD5, and CD11b. All antibodies were conjugated using the MAXPAR reagent (Fluidigm Inc.), with Rhodium and Iridium intercalators used to identify live/dead cells. Cells were washed twice with PBS, fixed in 1.6% formaldehyde (Sigma-Aldrich, St. Louis, MO) for 1 hour, washed again in ultrapure H2O and subjected to CyTOF mass cytometry analysis on a CyTOF I machine, with cell events acquired at approximately 500 events per second. In addition, each sample was spiked with internal metal isotope bead standards, which then was used for sample normalization by CyTOF software (Fluidigm). Acquired data was then uploaded to a Cytobank web server (Cytobank Inc.) for data processing and gating out of dead cells and normalization beads. Data was transformed using an arc sin h (X/5) transformation.
Differences in cell subset abundance and functional marker expression between VTA activated and control mice, were identified using the Citrus algorithm, a clustering and differential detection algorithm especially suited for high dimensional cytometry data (2). Twenty FCS files of normalized, live cell/no beads samples (Five VTA activated mice spleens, five VTA activated mice blood samples, 5 control mice spleen and five control mice blood) were each randomly sampled for 40,000 single cell events each. Briefly, Citrus performs three steps to identify cell subsets and differences between groups: First, collected single cell events are pooled together and iteratively hierarchically clustered using a subset of the measured channels for clustering (See Table 1 for a list of 23 clustering markers), yielding overlapping clusters with the ultimate cluster being one encompassing all sampled events. Second, the pooled dataset is split back into its constituting samples and the relative abundance of cells in each cluster is computed, as well as the median values of each functional marker (see Table 1 for a list of functional markers). Only cell clusters whose total abundance in one or more of the measured samples was greater than 1% of the total measured sample was retained for downstream analysis, yielding a total of 151 clusters. Third, the Citrus implementation of the SAM algorithm was applied, to identify, separately, differences in cell subset abundances and medians between VTA activated and control mouse samples at a predetermined FDR of 5%. Beyond this, an additional criteria for calling differences was employed, by performing a Mann-Whitney non-parametric test of significance on each cluster found to be different between VTA activated and control and requiring that it meet a p-value <0.05 criteria. Manual inspection of Citrus output was used to identify the closest known gross-cell type, matching the 23 combination clustering marker panel. A similar procedure analysis procedure was performed for 6-OHDA samples versus control. […]

[2] = IP injected; cited from earlier work

NCCc1cc(O)c(O)cc1O [6 OHDA, 6-hydroxydopamine]
differences in immune system (CD45+ cells) between VTA-activated and control mice [1]: no significant differences were detected | crossing of the blood brain barrier [2]: does not cross the blood brain barrier

Reference: patent publication US12201628B2, “Neuronal modulation” (priority 2013, dated 2025)
